The values that follow come from US11083196B2, “Microbiocidal oxadiazole derivatives” (SYNGENTA PARTICIPATIONS AG, priority 2016, dated 2021).

Series [1] relates to Glomerella lagenarium (Colletotrichum lagenarium). The series can be described thus: Fungicidal activity against Glomerella lagenarium (Colletotrichum lagenarium), liquid culture / cucumber / preventative (anthracnose). The class given is cell-based. Particulars: Colletotrichum orbiculare, liquid culture (PDB), growth inhibition measured photometrically 3-4 days after application, compared to untreated control. As to the method:
Mycelia fragments or conidia suspensions of a fungus, prepared either freshly from liquid cultures of the fungus or from cryogenic storage, are directly mixed into nutrient broth. DMSO solutions of the test compound (max. 10 mg/ml) is diluted with 0.025% Tween20 by a factor of 50 and 10 μl of this solution is pipetted into a microtiter plate (96-well format). The nutrient broth containing the fungal spores/mycelia fragments is then added to give an end concentration of the tested compound. The test plates are incubated in the dark at 24° C. and 96% relative humidity. The inhibition of fungal growth is determined photometrically after 2 to 7 days, depending on the pathosystem, and percent antifungal activity relative to the untreated check is calculated. Conidia of the fungus from cryogenic storage are directly mixed into nutrient broth (PDB potato dextrose broth). After placing a (DMSO) solution of test compound into a microtiter plate (96-well format), the nutrient broth containing the fungal spores is added. The test plates are incubated at 24° C. and the inhibition of growth is measured photometrically 3-4 days after application.

Where only a bound is given, the exact number is not on record here.

Compound `FC(F)(F)C1=NOC(c2ccc(-c3noc(C(F)(F)F)n3)cc2)C1` (stereo not shown) [Compound A-14, 5-(trifluoromethyl)-3-[4-[3-(trifluoromethyl)-4,5-dihydroisoxazol-5-yl]phenyl]-1,2,4-oxadiazole] registered a melting point of 65 to 69 °C. For the same compound, the inhibition of growth at 20 ppm in series [1] is not below 80%. On to `CCNC(=O)Nc1ccc(-c2ccc(-c3noc(C(F)(F)F)n3)cc2)cn1` [Compound D-2, 1-ethyl-3-[5-[4-[5-(trifluoromethyl)-1,2,4-oxadiazol-3-yl]phenyl]-2-pyridyl]urea], for which the melting point is 190 to 195 °C. `CCNc1cc(-c2ccc(-c3noc(C(F)(F)F)n3)cc2)ccn1` [Compound D-9, N-ethyl-4-[4-[5-(trifluoromethyl)-1,2,4-oxadiazol-3-yl]phenyl]pyridin-2-amine] showed a melting point of 130 to 135 °C. Regarding `O=C(Nc1cccc(-c2ccc(-c3noc(C(F)(F)F)n3)cc2)n1)C1CC1` [Compound D-14, N-[6-[4-[5-(trifluoromethyl)-1,2,4-oxadiazol-3-yl]phenyl]-2-pyridyl]cyclopropane carboxamide], the melting point lay in the range of 125 to 130 °C. The compound `FC(F)(F)c1nc(-c2ccc(-c3ccc(N4CCOCC4)nc3)cc2)no1` [Compound D-23, 4-[5-[4-[5-(trifluoromethyl)-1,2,4-oxadiazol-3-yl]phenyl]-2-pyridyl]morpholine] registered a melting point of 150 to 155 °C. `O=C(Nc1ccc(-c2ccc(-c3noc(C(F)(F)F)n3)cc2)cn1)C1CC1` [Compound D-11, N-[5-[4-[5-(trifluoromethyl)-1,2,4-oxadiazol-3-yl]phenyl]-2-pyridyl]cyclopropane carboxamide] showed a melting point of 175 to 180 °C. For the compound `Nc1cc(-c2ccc(-c3noc(C(F)(F)F)n3)cc2)ccn1` [Compound D-18, 4-[4-[5-(trifluoromethyl)-1,2,4-oxadiazol-3-yl]phenyl]pyridin-2-amine], the melting point is 195 to 200 °C. `CCNc1cccc(-c2ccc(-c3noc(C(F)(F)F)n3)cc2)n1` [Compound D-8, N-ethyl-6-[4-[5-(trifluoromethyl)-1,2,4-oxadiazol-3-yl]phenyl]pyridin-2-amine] gave a melting point of 120 to 125 °C. The inhibition of growth at 20 ppm in series [1] is not below 80%. For the compound `O=C(Nc1cc(-c2ccc(-c3noc(C(F)(F)F)n3)cc2)ccn1)C1CC1` [Compound D-17, N-[4-[4-(5-(triftuoromethyl)-1,2,4-oxadiazol-3-yl]phenyl]-2-pyridyl]cyclopropane carboxamide], the melting point was 140 to 145 °C. `FC(F)(F)c1nc(-c2ccc(-c3cc(C4CC4)no3)cc2)no1` [Compound C-10, 3-[4-(3-cyclopropylisoxazol-5-yl)phenyl]-5-(trifluoromethyl)-1,2,4-oxadiazole] returned a melting point of 143 to 146 °C. Regarding `CCNC(=O)Nc1cccc(-c2ccc(-c3noc(C(F)(F)F)n3)cc2)n1` [Compound D-1, 1-ethyl-3-[6-[4-[5-(trifluoromethyl)-1,2,4-oxadiazol-3-yl]phenyl]-2-pyridyl]urea], the melting point was 200 to 205 °C.

Regarding `FC(F)(F)c1nc(-c2ccc(-c3ccc(Cl)nc3)cc2)no1` [Compound D-27, 3-[4-(6-chloro-3-pyridyl)phenyl]-5-(trifluoromethyl)-1,2,4-oxadiazole], the melting point was 140 to 145 °C.

Turning to `FC(F)(F)c1nc(-c2ccc(N3CCCCO3)cc2)no1` [Compound B-1, 2-[4-[5-(trifluoromethyl)-1,2,4-oxadiazol-3-yl]phenyl]oxazinane], the melting point is 94 to 96 °C.

For the compound `O=C(C1CC1)N(C(=O)C1CC1)c1ccc(-c2ccc(-c3noc(C(F)(F)F)n3)cc2)cn1` [Compound D-10, N-(cyclopropanecarbonyl)-N-[5-[4-[5-(trifluoromethyl)-1,2,4-oxadiazol-3-yl]phenyl]-2-pyridyl]cyclopropane carboxamide], the melting point is 150 to 155 °C. Compound `O=C(Nc1ccc(-c2ccc(-c3noc(C(F)(F)F)n3)cc2)cn1)C(F)(F)F` [Compound D-13, 2,2,2-trifluoro-N-[5-[4-[5-(trifluoromethyl)-1,2,4-oxadiazol-3-yl]phenyl]-2-pyridyl]acetamide] registered a melting point of 135 to 140 °C. The same compound registered an inhibition of growth at 20 ppm in series [1] not below 80%.

For `COC(=O)C1(c2ccc(-c3noc(C(F)(F)F)n3)cc2)C(C)=C(C#N)C(=O)N1C` (stereo not shown) [Compound A-41, methyl 4-cyano-1,3-dimethyl-5-oxo-2-[4-[5-(trifluoromethyl)-1,2,4-oxadiazol-3-yl]phenyl]pyrrole-2-carboxylate], in series [1], the inhibition of growth at 20 ppm is not below 80%.

In series [1], `COc1ccccc1C1CC(c2ccc(-c3noc(C(F)(F)F)n3)cc2)=NO1` (stereo not shown) [Compound A-48, 3-[4-[5-(2-methoxyphenyl)-4,5-dihydroisoxazol-3-yl]phenyl]-5-(trifluoromethyl)-1,2,4-oxadiazole] returned an inhibition of growth at 20 ppm not below 80%. The compound `Fc1cccc(-c2ccc(-c3noc(C(F)(F)F)n3)cc2)n1` [Compound D-5, 3-[4-(6-fluoro-2-pyridyl)phenyl]-5-(trifluoromethyl)-1,2,4-oxadiazole] registered a melting point of 75 to 80 °C. For the same compound, the inhibition of growth at 20 ppm in series [1] was not below 80%. Compound `FC(F)(F)c1nc(-c2ccc(-c3nc(-c4cccnc4)cs3)cc2)no1` [Compound C-12, 3-[4-[4-(3-pyridyl)thiazol-2-yl]phenyl]-5-(trifluoromethyl)-1,2,4-oxadiazole] displayed a melting point of 142 to 143 °C. Regarding `FC(F)(F)c1nc(-c2ccc(-c3ccnc(N4CCOCC4)c3)cc2)no1` [Compound D-25, 4-[4-[4-[5-(trifluoromethyl)-1,2,4-oxadiazol-3-yl]phenyl]-2-pyridyl]morpholine], the melting point lay within 95 to 100 °C. Besides, in series [1], the inhibition of growth at 20 ppm was not below 80%. In turn, `FC(F)(F)c1nc(-c2ccc(C3CC(c4ccccc4)=NO3)cc2)no1` (stereo not shown) [Compound A-50, 3-[4-(3-phenyl-4,5-dihydroisoxazol-5-yl)phenyl]-5-(trifluoromethyl)-1,2,4-oxadiazole] gave a melting point of 139 to 142 °C. Take `CCNC(=O)Nc1cc(-c2ccc(-c3noc(C(F)(F)F)n3)cc2)ccn1` [Compound D-3, 1-ethyl-3-[4-[4-[5-(trifluoromethyl)-1,2,4-oxadiazol-3-yl]phenyl]-2-pyridyl]urea]: the melting point is 180 to 185 °C. `FC(F)(F)c1nc(-c2ccc(-c3ccc(NC4CC4)nc3)cc2)no1` [Compound D-21, N-cyclopropyl-5-[4-[5-(trifluoromethyl)-1,2,4-oxadiazol-3-yl]phenyl]pyridin-2-amine] gave a melting point of 135 to 140 °C. `FC(F)(F)c1nc(-c2ccc(C3CC(c4ccncc4)=NO3)cc2)no1` (stereo not shown) [Compound A-49, 3-[4-[3-(4-pyridyl)-4,5-dihydroisoxazol-5-yl]phenyl]-5-(trifluoromethyl)-1,2,4-oxadiazole]: the inhibition of growth at 20 ppm in series [1] is not below 80%.

`FC(F)(F)c1nc(-c2ccc(-c3cccc(Cl)n3)cc2)no1` [Compound D-22, 3-[4-(6-chloro-2-pyridyl)phenyl]-5-(trifluoromethyl)-1,2,4-oxadiazole] registered a melting point of 115 to 120 °C. Same read-out and setting: the value for `FC(F)(F)c1nc(-c2ccc(-c3cccc(N4CCOCC4)n3)cc2)no1` [Compound D-24, 4-[6-[4-[5-(trifluoromethyl)-1,2,4-oxadiazol-3-yl]phenyl]-2-pyridyl]morpholine] was 100 to 105 °C. `O=C(Nc1cccc(-c2ccc(-c3noc(C(F)(F)F)n3)cc2)n1)C(F)(F)F` [Compound D-4, 2,2,2-trifluoro-N-[6-[4-[5-(trifluoromethyl)-1,2,4-oxadiazol-3-yl]phenyl]-2-pyridyl]acetamide] registered a melting point of 125 to 130 °C. The compound further came in with an inhibition of growth at 20 ppm in series [1] not below 80%. For the compound `CCNc1ccc(-c2ccc(-c3noc(C(F)(F)F)n3)cc2)cn1` [Compound D-20, N-ethyl-5-[4-[5-(trifluoromethyl)-1,2,4-oxadiazol-3-yl]phenyl]pyridin-2-amine], the melting point lay in the range of 120 to 125 °C. Still for that read-out and setting: the value for `O=C(C1CC1)N(C(=O)C1CC1)c1cc(-c2ccc(-c3noc(C(F)(F)F)n3)cc2)ccn1` [Compound D-16, N-(cyclopropanecarbonyl)-N-[4-[4-[5-(trifluoromethyl)-1,2,4-oxadiazol-3-yl]phenyl]-2-pyridyl]cyclopropane carboxamide] was 120 to 125 °C. In the case of `FC(F)(F)c1nc(-c2ccc(C3CC(C4CCCCC4)=NO3)cc2)no1` (stereo not shown) [Compound A-7, 3-[4-(3-cyclohexyl-4,5-dihydroisoxazol-5-yl)phenyl]-5-(trifluoromethyl)-1,2,4-oxadiazole], the melting point was 79 to 82 °C. For the same compound, the inhibition of growth at 20 ppm in series [1] was not below 80%.
